Test [1] deals with Candida albicans. Briefly: Antimicrobial activity against Candida albicans up to 50 ug/ml by broth microdilution method. It is filed as functional, organism-based.
In test [2] the test system is PANC-1. Put plainly: Cytotoxicity against human PANC1 cells at 5 ug/ml after 2 to 3 days by MTT assay. Type of test: functional, cell-based. A general note: Formazan colour is commonly taken as a measure of viable cells.
Test [3] deals with Staphylococcus aureus. Put plainly: Antimicrobial activity against methicillin-resistant Staphylococcus aureus up to 50 ug/ml by broth microdilution method. It is filed as functional, organism-based. On the technique in general: Broth dilution looks for growth in wells or tubes with falling amounts of substance.
For test [4], the system named is NCI/ADR-RES. Put plainly: Cytotoxicity against human NCI/ADR-RES cells at 5 ug/ml after 2 to 3 days by MTT assay. It is filed as functional, cell-based.
Test [5] deals with Candida albicans. Put plainly: Antimicrobial activity against Candida albicans by broth microdilution method. Type of test: functional.
Test [6] relates to Staphylococcus aureus. Put plainly: Antimicrobial activity against methicillin-resistant Staphylococcus aureus by broth microdilution method. Type of test: functional.

Values after ≈ are worked out from the molar mass of the structure shown. Active and inactive are the calls of the source. The calls are words filed in the database; no cut-off is given here.

Consider `O=S(=O)(O)Oc1cc2[nH]c3ccc4c5ccc(Br)cc5[nH]c4c3c2cc1O`, for which the “growth inhibition (GI)” value in test [1] and in test [3] was “inactive” in each case. The outcome in test [2] and in test [4] was inactive.

As usually defined, the MIC is the lowest concentration found to suppress growth. A high value points to weaker potency. With `Oc1cc2[nH]c3ccc4c5ccc(Br)cc5[nH]c4c3c2cc1O`, the minimum inhibitory concentration (MIC) in test [5] worked out at 25 µg/mL (≈ 68.1 µM); in test [6], 50 µg/mL (≈ 136 µM). Besides, the outcome in test [2] and in test [4] was inactive.

The values above are taken from ChEMBL document CHEMBL2429719, “Indolo[3,2-a]carbazoles from a deep-water sponge of the genus Asteropus” (2013).
